# Measured values as given in patent US8802597B2, “Herbicidal pyrimidines” (E I du Pont de Nemours and Company, priority 2003, dated 2014).
# Assays:
# Format in all cases: in vivo
# [1] = test system: Surinam grass (Brachiaria decumbens); experiment: Test B pre/postemergence
# Method in brief: (§1)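 Formulation: non-phytotoxic solvent blend with surfactant. Timing: preemergence on seeds, postemergence at 1- to 4-leaf (2–18 cm). Assessment: visual, 0–100 against controls, after 13–15 days' greenhouse growth.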
# [2] = test system: barnyardgrass (Echinochloa crus-galli); experiment: Test B pre/postemergence
# Method in brief: as §1
# [3] = test system: cocklebur (Xanthium strumarium); experiment: Test B pre/postemergence
# Method in brief: as §1
# [4] = test system: corn (Zea mays); experiment: Test B pre/postemergence
# Method in brief: as §1
# [5] = test system: crabgrass (Digitaria sanguinalis); experiment: Test B pre/postemergence
# Method in brief: as §1
# [6] = test system: giant foxtail (Setaria faberii); experiment: Test B pre/postemergence
# Method in brief: as §1
# [7] = test system: lambsquarters (Chenopodium album); experiment: Test B pre/postemergence
# Method in brief: as §1
# [8] = test system: morningglory (Ipomoea coccinea); experiment: Test B pre/postemergence
# Method in brief: as §1
# [9] = test system: pigweed (Amaranthus retroflexus); experiment: Test B pre/postemergence
# Method in brief: as §1
# [10] = test system: velvetleaf (Abutilon theophrasti); experiment: Test B pre/postemergence
# Method in brief: as §1
# [11] = test system: wheat (Triticum aestivum); experiment: Test B pre/postemergence
# Method in brief: as §1
# [12] = test system: blackgrass (Alopecurus myosuroides); experiment: Test B postemergence; conditions: for Blackgrass plant response rating: 125 g ai/ha, scale 0 to 100 (0 no effect, 100 complete control); for Plant response rating, Blackgrass: 500 g ai/ha, scale 0 to 100
# Method in brief: as §1
# [13] = test system: wild oat (Avena fatua); experiment: Test B postemergence; conditions: for Oat, Wild plant response rating: 125 g ai/ha, scale 0 to 100 (0 no effect, 100 complete control); for Plant response rating, Oat, Wild: 500 g ai/ha, scale 0 to 100
# Method in brief: as §1
# [14] = test system: barnyardgrass (Echinochloa crus-galli); experiment: Test B flooded paddy test; conditions: Flood, 1000 g ai/ha; scale 0 (no effect) to 100 (complete control)
# Method in brief: (§2)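 Rice, umbrella sedge, duck salad and barnyardgrass grown to 2-leaf stage under flooded paddy conditions and treated with formulated test chemicals. Kept in greenhouse 13–15 days, then visually rated against untreated controls on a 0–100 scale (0 no effect, 100 complete control).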
# [15] = test system: duck salad (Heteranthera limosa); experiment: Test B flooded paddy test; conditions: Flood, 1000 g ai/ha; scale 0 to 100
# Method in brief: as §2
# [16] = test system: rice (Oryza sativa); experiment: Test B flooded paddy test; conditions: Flood, 1000 g ai/ha; scale 0 to 100
# Method in brief: as §2
# [17] = test system: umbrella sedge (Cyperus difformis); experiment: Test B flooded paddy test; conditions: Flood, 1000 g ai/ha; scale 0 to 100
# Method in brief: as §2
# [18] = Postemergence, 125 g ai/ha, scale 0 to 100 (0 no effect, 100 complete control)
# [19] = Postemergence, 500 g ai/ha, scale 0 to 100
# [20] = Preemergence, 125 g ai/ha, scale 0 to 100 (0 no effect, 100 complete control)
# [21] = Preemergence, 500 g ai/ha, scale 0 to 100 (0 no effect, 100 complete control)
smiles,measurement,setting,value
COC(=O)Cc1nc(C2CC2)nc(N)c1Br [Compound 13],Surinam Grass plant response rating,[1]; [18],0
same,"Plant response rating, Surinam Grass",[1]; [19],0
same,"Plant response rating, Surinam Grass",[1]; [20],0
same,Barnyardgrass plant response rating,[2]; [18],0
same,"Plant response rating, Barnyardgrass",[2]; [19],10
same,"Plant response rating, Barnyardgrass",[2]; [20],40
same,Barnyardgrass plant response rating,[2]; [21],80
same,Cocklebur plant response rating,[3]; [18],10
same,"Plant response rating, Cocklebur",[3]; [19],40
same,"Plant response rating, Cocklebur",[3]; [20],90
same,Cocklebur plant response rating,[3]; [21],100
same,Corn plant response rating,[4]; [18],0
same,"Plant response rating, Corn",[4]; [19],0
same,Corn plant response rating,[4]; [21],30
same,Crabgrass plant response rating,[5]; [18],20
same,"Plant response rating, Crabgrass",[5]; [19],30
same,"Plant response rating, Crabgrass",[5]; [20],50
same,Crabgrass plant response rating,[5]; [21],70
same,"Foxtail, Giant plant response rating",[6]; [18],10
same,"Plant response rating, Foxtail, Giant",[6]; [19],20
same,"Plant response rating, Foxtail, Giant",[6]; [20],20
same,"Foxtail, Giant plant response rating",[6]; [21],40
same,Lambsquarters plant response rating,[7]; [18],60
same,"Plant response rating, Lambsquarters",[7]; [19],70
same,"Plant response rating, Lambsquarters",[7]; [20],90
same,Lambsquarters plant response rating,[7]; [21],100
same,Morningglory plant response rating,[8]; [18],50
same,"Plant response rating, Morningglory",[8]; [19],70
same,"Plant response rating, Morningglory",[8]; [20],90
same,Morningglory plant response rating,[8]; [21],100
same,Pigweed plant response rating,[9]; [18],50
same,"Plant response rating, Pigweed",[9]; [19],70
same,"Plant response rating, Pigweed",[9]; [20],80
same,Pigweed plant response rating,[9]; [21],90
same,Velvetleaf plant response rating,[10]; [18],40
same,"Plant response rating, Velvetleaf",[10]; [19],50
same,"Plant response rating, Velvetleaf",[10]; [20],80
same,Velvetleaf plant response rating,[10]; [21],90
same,Wheat plant response rating,[11]; [18],0
same,"Plant response rating, Wheat",[11]; [19],0
same,"Plant response rating, Wheat",[11]; [20],40
same,Wheat plant response rating,[11]; [21],60
same,Blackgrass plant response rating,[12],10
same,"Plant response rating, Blackgrass",[12],20
same,"Oat, Wild plant response rating",[13],0
same,"Plant response rating, Oat, Wild",[13],0
same,"Plant response rating, Barnyardgrass",[14],0
same,"Plant response rating, Ducksalad",[15],0
same,"Plant response rating, Rice",[16],0
same,"Plant response rating, Sedge, Umbrella",[17],0
COC(=O)c1nc(C2CC2)nc(N=CN(C)C)c1Br [Compound 19],Surinam Grass plant response rating,[1]; [18],40
same,"Plant response rating, Surinam Grass",[1]; [19],90
same,"Plant response rating, Surinam Grass",[1]; [20],60
same,Surinam Grass plant response rating,[1]; [21],90
same,Barnyardgrass plant response rating,[2]; [18],80
same,"Plant response rating, Barnyardgrass",[2]; [19],90
same,"Plant response rating, Barnyardgrass",[2]; [20],40
same,Barnyardgrass plant response rating,[2]; [21],90
same,Cocklebur plant response rating,[3]; [18],90
same,"Plant response rating, Cocklebur",[3]; [19],100
same,"Plant response rating, Cocklebur",[3]; [20],90
same,Cocklebur plant response rating,[3]; [21],100
same,Corn plant response rating,[4]; [18],30
same,"Plant response rating, Corn",[4]; [19],70
same,"Plant response rating, Corn",[4]; [20],70
same,Corn plant response rating,[4]; [21],90
same,Crabgrass plant response rating,[5]; [18],40
same,"Plant response rating, Crabgrass",[5]; [19],80
same,"Plant response rating, Crabgrass",[5]; [20],80
same,Crabgrass plant response rating,[5]; [21],90
same,"Foxtail, Giant plant response rating",[6]; [18],20
same,"Plant response rating, Foxtail, Giant",[6]; [19],80
same,"Plant response rating, Foxtail, Giant",[6]; [20],20
same,"Foxtail, Giant plant response rating",[6]; [21],80
same,Lambsquarters plant response rating,[7]; [18],100
same,"Plant response rating, Lambsquarters",[7]; [19],100
same,"Plant response rating, Lambsquarters",[7]; [20],100
same,Lambsquarters plant response rating,[7]; [21],100
same,Morningglory plant response rating,[8]; [18],100
same,"Plant response rating, Morningglory",[8]; [19],100
same,"Plant response rating, Morningglory",[8]; [20],90
same,Morningglory plant response rating,[8]; [21],100
same,Pigweed plant response rating,[9]; [18],90
same,"Plant response rating, Pigweed",[9]; [19],100
same,"Plant response rating, Pigweed",[9]; [20],90
same,Pigweed plant response rating,[9]; [21],100
same,Velvetleaf plant response rating,[10]; [18],70
same,"Plant response rating, Velvetleaf",[10]; [19],100
same,"Plant response rating, Velvetleaf",[10]; [20],90
same,Velvetleaf plant response rating,[10]; [21],100
same,Wheat plant response rating,[11]; [18],20
same,"Plant response rating, Wheat",[11]; [19],60
same,"Plant response rating, Wheat",[11]; [20],50
same,Wheat plant response rating,[11]; [21],60
same,Blackgrass plant response rating,[12],60
same,"Plant response rating, Blackgrass",[12],80
same,"Oat, Wild plant response rating",[13],40
same,"Plant response rating, Oat, Wild",[13],70
same,"Plant response rating, Barnyardgrass",[14],80
same,"Plant response rating, Ducksalad",[15],80
same,"Plant response rating, Rice",[16],60
same,"Plant response rating, Sedge, Umbrella",[17],70
